Source: patent publication US7244753B2, “Cyclooxygenase-2 selective inhibitors, compositions and methods of use” (NitroMed, Inc., priority 2002, dated 2007)

Experiments:
[1] = test system: Rat Carrageenan Air-Pouch; assay: Rat carrageenan air-pouch; assay type: in vivo; conditions: 45 μmol/kg by oral intubation 1 hour prior to carrageenan
Experimental: The carrageenan air pouch model was performed as described by Sedgwick, A. D., et al., Agents Actions 18, 429-438, (1986) and Masferrer et al., Proc. Natl. Acad. Sci. 91, 3228-3232 (1994). Air pouches were produced by subcutaneous injection of 20 ml of sterile air on day (−6) into the intrascapular area of the back of the anesthesia rat (male CD, Charles River, 175-200 g). An additional 10 mL of sterile air was injected into the pouch 3 days later to keep the space open and to assist in the development of the interior membrane. Six days after the initial air injection, 1 mL of a 1% solution of carrageenan (Sigma, lambda fraction) dissolved in pyrogen-free saline was injected directly into the pouch to produce an inflammatory response. The test compound in vehicle (3 mL/rat, 0.5% Methocel) was administered by oral intubation 1 hour prior to carrageenan injection into the inflammatory pouch. After 4 hours the exudate was removed by pipette into a calibrated centrifuge tube and the volume measured. The number of leukocytes in the exudate was determined by cell counting with a Beckman Coulter Particle Counter with the lower threshold set to exclude red blood cells. The exudate samples were assayed without further processing for PGE2 (prostaglandin E2) using PGE2 EIA kit-Monoclonal, friom Cayman Chemical Co. (Ann Arbor, Mich., Catalogue No. 514010). […]

[2] = biological target: T1, Human COX-2 (Homo sapiens, UniProt P35354); assay: COX-2 enzyme activity in human whole blood (LPS-induced, thromboxane B2 EIA); assay type: cell-based; conditions: for inhibition at 1 µM: 1 μM test compound; for inhibition at 10 µM: 10 μM test compound
T1 construct: Human blood (≈50 mL) from male or female donors who had not received any aspirin or NSAIDs for 14 days was collected; endogenous in cells; host or cells: human whole blood from donors, heparinised, COX-2 induced with E. coli LPS
T1 sequence (P35354 18-604): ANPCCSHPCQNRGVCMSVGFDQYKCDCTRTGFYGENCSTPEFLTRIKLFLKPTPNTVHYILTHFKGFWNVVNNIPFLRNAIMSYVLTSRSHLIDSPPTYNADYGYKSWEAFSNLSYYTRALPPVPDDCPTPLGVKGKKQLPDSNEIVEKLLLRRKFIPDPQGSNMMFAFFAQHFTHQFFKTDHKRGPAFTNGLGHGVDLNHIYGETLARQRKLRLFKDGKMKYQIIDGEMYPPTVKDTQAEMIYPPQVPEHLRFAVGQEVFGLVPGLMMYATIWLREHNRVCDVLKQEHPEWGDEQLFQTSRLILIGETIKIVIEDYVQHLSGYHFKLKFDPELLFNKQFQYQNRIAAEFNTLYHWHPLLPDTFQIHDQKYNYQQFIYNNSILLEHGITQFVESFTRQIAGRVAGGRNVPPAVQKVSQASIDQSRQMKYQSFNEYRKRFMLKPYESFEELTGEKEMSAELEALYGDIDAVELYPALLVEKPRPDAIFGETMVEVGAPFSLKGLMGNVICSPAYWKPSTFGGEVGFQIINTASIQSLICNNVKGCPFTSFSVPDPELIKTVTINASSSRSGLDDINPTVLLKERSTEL
Experimental: (§1) Human blood (≈50 mL) from male or female donors who had not received any aspirin or NSAIDs for 14 days was collected at two local area blood donor centers and placed in polypropylene syringes containing sodium heparin (20 units per mL blood, final concentration). The blood was transported to the laboratory on ice packs and used within 1.5 hours of collection. Upon receipt in the laboratory, the blood was allowed to come to room temperature for 15 minutes prior to distribution in 1 mL aliquots per well of 24 well tissue culture plates. The plates were then placed on a gently rotating platform shaker in a 5% CO2 incubator at 37° C. for 15 minutes. Test compounds were dissolved in DMSO, at 1000 fold the final desired concentration, and further diluted, as indicated, in DMSO. One μL of each dilution of the test compound was added per well, in duplicate wells; wells not receiving test compound (e.g., basal, background or control wells) received 1 μL DMSO.
(§2) (Basal or background wells not incubated with LPS received 2 μL of DMSO.) For the stimulation of COX-1, the calcium ionophore, A23187 (free acid from Sigma Chemical Co., St. Louis, Mo., Catalogue No. C7522) was added at 25 μM (1 μL of 25 mM stock in DMSO) to separate wells 4.5 hours after the addition of the test compound. (Again, basal, background or control wells not stimulated with A23187 received 1 μL of DMSO.) At 5 hours after the addition of the test compound, all incubations were terminated by placement on ice and the addition of 2 mM EGTA (100 μL of 20 mM EGTA, tetrasodium, in PBS (phosphate buffered saline) without Ca^++ and Mg^++, pH 7.2)). The resulting solutions, were transferred by polyethylene transfer pipettes to 15 mL polypropylene centrifuge tubes and centrifuged at 1200 g for 10 minutes at 4° C. One hundred μL of plasma was removed from each blood sample and added to 1 mL of methanol in new 15 mL polypropylene centrifuge tubes, vortexed, and stored overnight at −20° C. The next day, the samples were centrifuged at 2000 g for 10 minutes at 4° C. and the supernatants transferred to glass tubes and evaporated to dryness.

[3] = biological target: T2, Human COX-1 (Homo sapiens, UniProt P23219); assay: COX-1 enzyme activity in human whole blood (A23187-stimulated, thromboxane B2 EIA); assay type: cell-based; conditions: 100 μM test compound
T2 construct: Human blood (≈50 mL) from male or female donors who had not received any aspirin or NSAIDs for 14 days was collected; endogenous in cells; host or cells: human whole blood from donors, heparinised, stimulated with calcium ionophore A23187
Experimental: as §1, with “The assay for COX-1 and COX-2 enzyme activity, in the human whole blood was performed as described in Brideau et al., Inflamm Res., 45: 68-74 (1996)). Human” for “Human”
as §2, with “To induce COX-2, lipopolysaccharide (LPS) from E. coli (LPS, serotype 026:B6 or serotype 0127:B8, Sigma Chemical Co., St. Louis, Mo., Catalogue No. L3755 or L3129, respectively) was added at 10 μg/mL (2 μL of 5 mg/mL LPS in DMSO) to appropriate wells 15 minutes after the addition of the test compound. (Basal” for “(Basal”, “dryness. The samples were assayed for thromboxane B2 using EIA kits supplied by Cayman Chemical Co. (Ann Arbor, Mich., Catalogue No. 519031) in duplicate wells after reconstitution with EIA Buffer and appropriate dilution (2000 fold for COX-1 and 500 fold for Cox-2 samples).” for “dryness.”
The % inhibition for COX-1 and COX-2 enzyme activity in human whole blood by the test compounds, at the indicated concentrations, are given in Table 1.

T2 sequence (P23219 24-599): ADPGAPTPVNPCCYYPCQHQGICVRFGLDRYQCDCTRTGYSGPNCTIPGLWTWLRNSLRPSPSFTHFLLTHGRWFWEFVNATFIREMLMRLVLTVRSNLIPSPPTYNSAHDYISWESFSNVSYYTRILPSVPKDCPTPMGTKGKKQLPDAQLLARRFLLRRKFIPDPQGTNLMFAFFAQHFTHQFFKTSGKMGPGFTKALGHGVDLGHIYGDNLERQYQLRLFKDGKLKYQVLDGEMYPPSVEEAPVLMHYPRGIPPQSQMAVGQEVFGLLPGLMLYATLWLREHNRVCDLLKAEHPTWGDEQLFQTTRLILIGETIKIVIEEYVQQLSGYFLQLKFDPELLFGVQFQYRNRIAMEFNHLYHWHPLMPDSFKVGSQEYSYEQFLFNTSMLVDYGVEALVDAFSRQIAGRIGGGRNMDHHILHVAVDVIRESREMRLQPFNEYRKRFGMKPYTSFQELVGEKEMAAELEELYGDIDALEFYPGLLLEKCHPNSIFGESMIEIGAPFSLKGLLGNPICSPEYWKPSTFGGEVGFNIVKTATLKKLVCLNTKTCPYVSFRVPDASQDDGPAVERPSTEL

| SMILES | inhibition at 1 µM [2] | inhibition at 10 µM [2] | inhibition at 100 µM [3] | melting point | PGE-2 (% Inhibition at @ 45 μmol/kg) ([1]; exudate PGE2 after 4 hours) | Cell Infiltration (% inhibition @ 45 μmol/kg) ([1]; exudate leukocytes after 4 hours) |
| --- | --- | --- | --- | --- | --- | --- |
| CS(=O)(=O)c1ccc(-c2cc(COCCO[N+](=O)[O-])nn2CC2CCCCC2)cc1 [Example 2f, 4-(1-(Cyclohexylmethyl)-3-((2-(nitrooxy)ethoxy)methyl)pyrazol-5-yl)-1-(methylsulfonyl)benzene] | 20% | 75% | 70% |  | 85% | 42% |
| COC(=O)c1cc(-c2ccc(S(C)(=O)=O)cc2)n(Cc2ccccc2)n1 [Example 8, Methyl 5-(4-(methylsulfonyl)phenyl)-1-benzylpyrazole-3-carboxylate] | 15% | 25% | 55% | 142 to 143 °C |  |  |
| CS(=O)(=O)c1ccc(-c2ncccc2C(=O)c2ccccn2)cc1 [Example 11b, 2-(4-(Methylsulfonyl)phenyl)(3-pyridyl) 2-pyridyl Ketone] | 0% | 15% | 0% | 143 to 147 °C |  |  |
| CCOC(=O)c1cccc(C(=O)c2cccnc2-c2ccc(S(C)(=O)=O)cc2)c1 [Example 12b, Ethyl 3-((2-(4-(methylsulfonyl)phenyl)-3-pyridyl)carbonyl)benzoate] | 10% | 20% | 25% | 125 to 132 °C |  |  |

Continued, in another order:

| inhibition at 1 µM [2] | inhibition at 10 µM [2] | inhibition at 100 µM [3] | melting point | SMILES | PGE-2 (% Inhibition at @ 45 μmol/kg) ([1]; exudate PGE2 after 4 hours) | Cell Infiltration (% inhibition @ 45 μmol/kg) ([1]; exudate leukocytes after 4 hours) |
| --- | --- | --- | --- | --- | --- | --- |
| 75% | 100% | 90% | 76 to 77 °C | CS(=O)(=O)c1ccc(-c2cc(CCCO[N+](=O)[O-])nn2CC2CCCCC2)cc1 [Example 5c, 1-(1-(Cyclohexylmethyl)-3-(3-(nitrooxy)propyl)pyrazol-5-yl)-4-(methylsulfonyl)benzene] |  |  |
| 70% | 100% | 30% | 136 to 138 °C | C=Cc1cc(-c2ccc(S(C)(=O)=O)cc2)n(CC2CCCCC2)n1 [Example 6b, 1-(1-(Cyclohexylmethyl)-3-vinylpyrazol-5-yl)-4-(methylsulfonyl)benzene] |  |  |
